# Legend:
# Test in all cases: biochemical
# proteases [1] = molecular target: T1, proteases (Homo sapiens, UniProt P42574); details: Caspase-3; reference at 100 nM
# T1 construct: BPS Biosciences (contract assay)
# proteases [2] = molecular target: T2, proteases (Homo sapiens, UniProt P55210); details: Caspase-7; reference at 1 μM
# T2 construct: BPS Biosciences (contract assay)
# proteases [3] = molecular target: T3, proteases (Hepatitis C virus genotype 1a, UniProt P27958, D1194V); details: serine protease NS3 (a.a. 3-181) from Hepatitis C virus genotype 1a (mutant D168 V); reference at 100 nM
# T3 construct: BPS Biosciences (contract assay)
# proteases [4] = molecular target: T4, proteases (Hepatitis C virus genotype 1b, UniProt P26663, R1181K); details: serine protease NS3 (a.a. 3-181) from Hepatitis C virus genotype 1b (mutant R155K); reference at 100 nM
# T4 construct: BPS Biosciences (contract assay)
# proteases [5] = molecular target: T5, proteases (Hepatitis C virus genotype 2a, UniProt Q99IB8); details: serine protease NS3 (a.a. 3-181) from Hepatitis C virus genotype 2a; reference at 100 nM
# T5 construct: BPS Biosciences (contract assay)
# T5 sequence (Q99IB8 whole entry): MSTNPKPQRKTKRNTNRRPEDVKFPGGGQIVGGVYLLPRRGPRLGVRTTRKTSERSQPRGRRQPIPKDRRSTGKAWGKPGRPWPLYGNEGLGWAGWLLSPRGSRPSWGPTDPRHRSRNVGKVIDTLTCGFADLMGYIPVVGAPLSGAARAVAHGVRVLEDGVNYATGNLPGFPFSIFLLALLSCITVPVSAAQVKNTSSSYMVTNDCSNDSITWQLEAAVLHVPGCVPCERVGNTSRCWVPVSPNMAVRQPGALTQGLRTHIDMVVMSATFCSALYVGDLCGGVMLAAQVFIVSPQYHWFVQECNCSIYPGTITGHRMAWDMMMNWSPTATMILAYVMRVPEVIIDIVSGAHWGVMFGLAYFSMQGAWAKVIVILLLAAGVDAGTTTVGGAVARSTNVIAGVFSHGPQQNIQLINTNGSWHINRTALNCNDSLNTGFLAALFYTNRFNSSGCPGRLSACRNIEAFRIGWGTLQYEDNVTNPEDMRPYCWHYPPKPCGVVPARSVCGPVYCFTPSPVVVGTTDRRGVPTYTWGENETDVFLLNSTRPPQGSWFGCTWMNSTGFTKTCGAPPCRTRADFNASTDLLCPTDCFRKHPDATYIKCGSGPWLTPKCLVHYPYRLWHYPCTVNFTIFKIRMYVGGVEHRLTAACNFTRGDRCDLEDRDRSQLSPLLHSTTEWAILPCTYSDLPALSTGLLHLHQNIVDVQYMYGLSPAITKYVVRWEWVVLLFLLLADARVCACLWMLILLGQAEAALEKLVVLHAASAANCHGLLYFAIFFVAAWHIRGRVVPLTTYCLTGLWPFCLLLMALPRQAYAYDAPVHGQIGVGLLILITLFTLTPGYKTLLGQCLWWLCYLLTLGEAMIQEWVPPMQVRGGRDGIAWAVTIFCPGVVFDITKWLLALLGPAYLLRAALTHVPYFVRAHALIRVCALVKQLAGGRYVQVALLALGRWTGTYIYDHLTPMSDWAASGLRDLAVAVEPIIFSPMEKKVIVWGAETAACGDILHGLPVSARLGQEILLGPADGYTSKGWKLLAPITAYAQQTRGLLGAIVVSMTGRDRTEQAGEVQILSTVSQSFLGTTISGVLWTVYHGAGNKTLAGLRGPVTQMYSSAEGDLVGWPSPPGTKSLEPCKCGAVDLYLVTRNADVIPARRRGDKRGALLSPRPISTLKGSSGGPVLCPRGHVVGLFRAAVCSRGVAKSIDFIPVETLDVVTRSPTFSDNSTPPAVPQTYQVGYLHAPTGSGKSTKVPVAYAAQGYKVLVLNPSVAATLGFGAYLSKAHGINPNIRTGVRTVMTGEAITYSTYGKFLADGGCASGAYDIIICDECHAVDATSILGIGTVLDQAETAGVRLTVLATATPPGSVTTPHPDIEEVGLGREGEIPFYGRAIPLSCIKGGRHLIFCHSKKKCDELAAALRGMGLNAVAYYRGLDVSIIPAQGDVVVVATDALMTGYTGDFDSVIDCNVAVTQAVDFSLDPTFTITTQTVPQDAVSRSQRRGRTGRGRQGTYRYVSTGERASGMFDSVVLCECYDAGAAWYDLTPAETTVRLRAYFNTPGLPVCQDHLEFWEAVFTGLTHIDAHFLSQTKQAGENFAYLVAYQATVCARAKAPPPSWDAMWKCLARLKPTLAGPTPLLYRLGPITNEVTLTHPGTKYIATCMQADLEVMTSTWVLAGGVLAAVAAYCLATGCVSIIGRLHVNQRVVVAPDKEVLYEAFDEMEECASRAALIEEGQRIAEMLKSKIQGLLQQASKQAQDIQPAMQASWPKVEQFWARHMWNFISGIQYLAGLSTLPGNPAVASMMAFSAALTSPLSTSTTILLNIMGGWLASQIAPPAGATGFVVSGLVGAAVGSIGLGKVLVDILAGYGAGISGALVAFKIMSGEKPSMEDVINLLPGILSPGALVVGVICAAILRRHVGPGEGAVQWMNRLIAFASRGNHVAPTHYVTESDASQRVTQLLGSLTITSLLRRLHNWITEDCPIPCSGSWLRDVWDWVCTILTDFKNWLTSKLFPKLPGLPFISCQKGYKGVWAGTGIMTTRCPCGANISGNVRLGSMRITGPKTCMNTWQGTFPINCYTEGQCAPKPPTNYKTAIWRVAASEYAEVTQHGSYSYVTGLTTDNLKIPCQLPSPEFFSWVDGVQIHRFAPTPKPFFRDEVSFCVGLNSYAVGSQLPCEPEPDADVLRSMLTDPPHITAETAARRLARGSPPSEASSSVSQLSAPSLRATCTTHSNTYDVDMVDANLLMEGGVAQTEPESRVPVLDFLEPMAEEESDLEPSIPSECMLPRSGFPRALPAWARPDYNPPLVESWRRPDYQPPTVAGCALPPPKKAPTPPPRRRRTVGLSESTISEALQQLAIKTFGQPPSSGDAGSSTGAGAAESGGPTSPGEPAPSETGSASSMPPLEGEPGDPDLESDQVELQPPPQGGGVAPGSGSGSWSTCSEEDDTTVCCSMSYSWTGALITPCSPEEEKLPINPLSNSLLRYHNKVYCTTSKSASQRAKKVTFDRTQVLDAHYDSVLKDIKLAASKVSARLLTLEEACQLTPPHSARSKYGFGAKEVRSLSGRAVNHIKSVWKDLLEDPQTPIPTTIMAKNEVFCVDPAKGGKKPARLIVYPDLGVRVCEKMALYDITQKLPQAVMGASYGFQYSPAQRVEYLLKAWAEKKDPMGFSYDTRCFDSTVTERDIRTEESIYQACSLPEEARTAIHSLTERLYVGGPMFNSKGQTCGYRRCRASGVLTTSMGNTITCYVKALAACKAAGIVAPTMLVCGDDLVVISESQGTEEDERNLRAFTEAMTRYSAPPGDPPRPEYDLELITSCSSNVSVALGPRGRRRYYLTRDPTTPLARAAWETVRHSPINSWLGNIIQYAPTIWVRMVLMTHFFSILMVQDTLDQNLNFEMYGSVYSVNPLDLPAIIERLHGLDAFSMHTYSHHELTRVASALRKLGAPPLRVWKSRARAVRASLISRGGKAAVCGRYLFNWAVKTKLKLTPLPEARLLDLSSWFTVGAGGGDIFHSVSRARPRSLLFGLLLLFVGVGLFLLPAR
# proteases [6] = molecular target: T6, proteases (Homo sapiens, UniProt O60911); details: Cathepsin V; reference at 100 nM
# T6 construct: BPS Biosciences (contract assay)
# proteases [7] = molecular target: T7, proteases (Homo sapiens, UniProt P07711); details: Cathepsin L; reference at 1 μM
# T7 construct: BPS Biosciences (contract assay)
# proteases [8] = molecular target: proteases (Homo sapiens, UniProt P07858); details: Cathepsin B; reference at 100 nM
# proteases [9] = molecular target: T8, proteases (Homo sapiens, UniProt P25774); details: Cathepsin S; reference at 100 nM
# T8 construct: BPS Biosciences (contract assay)
# T8 sequence (P25774 115-331): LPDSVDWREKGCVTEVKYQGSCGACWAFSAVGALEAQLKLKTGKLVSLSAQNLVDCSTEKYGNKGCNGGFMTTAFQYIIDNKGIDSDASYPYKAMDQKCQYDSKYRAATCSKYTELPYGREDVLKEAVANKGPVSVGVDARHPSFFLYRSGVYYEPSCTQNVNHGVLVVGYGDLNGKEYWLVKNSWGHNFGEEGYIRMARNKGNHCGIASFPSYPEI
# proteases [10] = molecular target: T9, proteases (Homo sapiens, UniProt Q6V1X1); details: DPP8; reference at 200 μM
# T9 construct: BPS Biosciences (contract assay)
# proteases [11] = molecular target: proteases (Homo sapiens, UniProt Q9UHL4); details: DPP7; reference at 200 μM
# proteases [12] = molecular target: T10, proteases (Homo sapiens, UniProt P03956); details: Matrix metalloprotease1; reference at 1 μM
# T10 construct: BPS Biosciences (contract assay)
# proteases [13] = molecular target: T11, proteases (Homo sapiens, UniProt P08253); details: Matrix metalloprotease 2; reference at 100 nM
# T11 construct: BPS Biosciences (contract assay)
# T11 sequence (P08253 110-660): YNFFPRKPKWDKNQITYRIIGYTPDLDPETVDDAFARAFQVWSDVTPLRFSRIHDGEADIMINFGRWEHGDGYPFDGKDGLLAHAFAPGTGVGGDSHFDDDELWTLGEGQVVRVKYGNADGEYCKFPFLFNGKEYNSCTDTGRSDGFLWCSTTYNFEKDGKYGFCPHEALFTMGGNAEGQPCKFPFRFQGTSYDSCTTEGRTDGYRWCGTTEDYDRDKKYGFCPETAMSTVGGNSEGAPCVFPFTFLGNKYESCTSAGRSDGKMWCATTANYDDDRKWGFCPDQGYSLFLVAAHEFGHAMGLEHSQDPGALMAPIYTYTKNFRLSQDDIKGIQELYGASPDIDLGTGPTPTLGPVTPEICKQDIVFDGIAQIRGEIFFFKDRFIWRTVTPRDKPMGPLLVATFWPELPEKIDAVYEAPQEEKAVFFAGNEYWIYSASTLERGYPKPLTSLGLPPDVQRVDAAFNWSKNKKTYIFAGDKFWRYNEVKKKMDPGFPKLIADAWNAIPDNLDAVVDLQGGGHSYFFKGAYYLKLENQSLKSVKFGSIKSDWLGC
# proteases [14] = molecular target: T12, proteases (Homo sapiens, UniProt P14780, Q279R); details: 0.1 µM
# T12 construct: BPS Biosciences (contract assay)
# proteases [15] = molecular target: T13, proteases (Homo sapiens, UniProt Q12884); details: FAP; reference at 100 nM
# T13 construct: BPS Biosciences (contract assay)
# T13 sequence (Q12884 whole entry): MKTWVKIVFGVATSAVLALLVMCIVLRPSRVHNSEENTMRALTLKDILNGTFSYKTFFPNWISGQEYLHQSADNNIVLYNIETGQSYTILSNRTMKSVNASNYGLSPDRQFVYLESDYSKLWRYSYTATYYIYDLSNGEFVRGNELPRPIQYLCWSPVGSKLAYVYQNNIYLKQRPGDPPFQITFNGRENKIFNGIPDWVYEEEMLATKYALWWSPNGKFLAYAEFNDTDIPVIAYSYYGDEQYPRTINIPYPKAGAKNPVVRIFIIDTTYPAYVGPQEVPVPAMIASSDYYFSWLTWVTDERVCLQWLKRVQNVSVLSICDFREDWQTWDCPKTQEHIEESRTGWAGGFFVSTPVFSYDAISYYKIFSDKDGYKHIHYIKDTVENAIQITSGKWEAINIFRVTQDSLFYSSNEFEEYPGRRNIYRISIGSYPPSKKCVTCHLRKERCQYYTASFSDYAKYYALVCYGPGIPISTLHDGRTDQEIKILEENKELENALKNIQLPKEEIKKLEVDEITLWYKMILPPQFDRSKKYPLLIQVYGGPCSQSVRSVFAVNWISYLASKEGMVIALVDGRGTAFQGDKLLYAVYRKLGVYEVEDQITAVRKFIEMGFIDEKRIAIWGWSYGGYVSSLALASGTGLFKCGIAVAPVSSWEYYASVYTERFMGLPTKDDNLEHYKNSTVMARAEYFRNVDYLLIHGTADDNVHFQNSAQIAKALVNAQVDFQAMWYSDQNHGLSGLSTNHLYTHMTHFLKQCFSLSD
# proteases [16] = molecular target: T14, proteases (Homo sapiens, UniProt P55212); details: Caspase-6; reference at 1 μM
# T14 construct: BPS Biosciences (contract assay)
# proteases [17] = molecular target: T15, proteases (Homo sapiens, UniProt Q14790); details: Caspase-8; reference at 100 nM
# T15 construct: BPS Biosciences (contract assay)
# proteases [18] = molecular target: T16, proteases (Homo sapiens, UniProt Q9UBX1); details: Cathepsin F; reference at 1 μM
# T16 construct: BPS Biosciences (contract assay)
# proteases [19] = molecular target: T17, proteases (Homo sapiens, UniProt O75604); details: Ubiquitin carboxy-terminal hydrolase 2; reference at 1 μM
# T17 construct: BPS Biosciences (contract assay)
# proteases [20] = molecular target: T18, proteases (Homo sapiens, UniProt P09936); details: Ubiquitin carboxy-terminal hydrolase L1; reference at 100 nM
# T18 construct: BPS Biosciences (contract assay)
# T18 sequence (P09936 whole entry): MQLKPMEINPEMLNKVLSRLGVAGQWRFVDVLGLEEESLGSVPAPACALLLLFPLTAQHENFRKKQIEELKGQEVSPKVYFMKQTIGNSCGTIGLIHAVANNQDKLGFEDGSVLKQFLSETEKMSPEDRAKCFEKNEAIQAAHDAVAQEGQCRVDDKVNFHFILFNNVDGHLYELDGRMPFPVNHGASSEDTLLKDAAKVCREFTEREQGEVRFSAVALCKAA
# proteases [21] = molecular target: T19, proteases (Homo sapiens, UniProt P15374); details: Ubiquitin carboxy-terminal hydrolase L3; reference at 10 nM
# T19 construct: BPS Biosciences (contract assay)
# proteases [22] = molecular target: T20, proteases (Homo sapiens, UniProt P40818); details: Ubiquitin carboxy-terminal hydrolase 8; reference at 1 μM
# T20 construct: BPS Biosciences (contract assay)
# proteases [23] = molecular target: T21, proteases (Homo sapiens, UniProt P45974); details: Ubiquitin carboxy-terminal hydrolase 5; reference at 1 μM
# T21 construct: BPS Biosciences (contract assay)
# proteases [24] = molecular target: T22, proteases (Homo sapiens, UniProt P54252); details: Ataxin3; reference at 10 μM
# T22 construct: BPS Biosciences (contract assay)
# proteases [25] = molecular target: T23, proteases (Homo sapiens, UniProt P54578); details: Ubiquitin carboxy-terminal hydrolase 14; reference at 100 nM
# T23 construct: BPS Biosciences (contract assay)
# proteases [26] = molecular target: T24, proteases (Homo sapiens, UniProt Q14694); details: Ubiquitin carboxy-terminal hydrolase 10; reference at 1 μM
# T24 construct: BPS Biosciences (contract assay)
# proteases [27] = molecular target: T25, proteases (Homo sapiens, UniProt Q8N6M0); details: Deubiquitinase OTUD6B; reference at 1 μM
# T25 construct: BPS Biosciences (contract assay)
# T25 sequence (Q8N6M0 whole entry): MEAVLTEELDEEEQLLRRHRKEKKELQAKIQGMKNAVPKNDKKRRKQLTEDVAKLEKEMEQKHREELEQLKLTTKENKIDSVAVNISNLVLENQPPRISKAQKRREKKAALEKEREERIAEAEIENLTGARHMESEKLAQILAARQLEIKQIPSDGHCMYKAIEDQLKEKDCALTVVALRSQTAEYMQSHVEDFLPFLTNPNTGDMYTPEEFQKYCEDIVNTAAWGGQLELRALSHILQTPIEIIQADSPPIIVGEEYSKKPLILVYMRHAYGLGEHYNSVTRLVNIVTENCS
# proteases [28] = molecular target: T26, proteases (Homo sapiens, UniProt Q93009); details: Ubiquitin carboxy-terminal hydrolase 7; reference at 1 μM
# T26 construct: BPS Biosciences (contract assay)
compound,measurement,setting,value
COC[C@@H]1CCCN1S(=O)(=O)c1ccc2c(c1)C(=O)C(=O)N2 [Caspase 3/7 Inhibitor I],Percentage inhibition (%) Reference,proteases [1],89%
same,Percentage inhibition (%) Reference,proteases [2],92%
CC(C)(C)OC(=O)N[C@H]1CCCCC/C=C\[C@@H]2C[C@@]2(C(=O)NS(=O)(=O)C2CC2)NC(=O)[C@@H]2C[C@@H](OC(=O)N3Cc4cccc(F)c4C3)CN2C1=O [Denoprevir],Percentage inhibition (%) Reference,proteases [3],94%
same,Percentage inhibition (%) Reference,proteases [4],90%
same,Percentage inhibition (%) Reference,proteases [5],98%
CC(C)C[C@H](NC(=O)[C@H]1O[C@@H]1C(=O)O)C(=O)NCCCCN=C(N)N [E-64],Percentage inhibition (%) Reference,proteases [6],83%
same,Percentage inhibition (%) Reference,proteases [7],97%
same,Percentage inhibition (%) Reference,proteases [8],97%
same,Percentage inhibition (%) Reference,proteases [9],91%
N#Cc1ccc(NCCNCC(=O)N2N=CCC2C#N)nc1 (stereo not shown) [KR62436],Percentage inhibition (%) Reference,proteases [10],96%
same,Percentage inhibition (%) Reference,proteases [11],83%
COc1ccc(S(=O)(=O)N(CC(=O)NO)CC(C)C)cc1 [NNGH],Percentage inhibition (%) Reference,proteases [12],87%
same,Percentage inhibition (%) Reference,proteases [13],95%
same,Percentage inhibition (%) Reference,proteases [14],92%
N#C[C@@H]1CC(F)(F)CN1C(=O)CNC(=O)c1ccnc2ccccc12 [SP-13786],Percentage inhibition (%) Reference,proteases [15],100%
Caspase 8 Inhibitor I,Percentage inhibition (%) Reference,proteases [16],94%
same,Percentage inhibition (%) Reference,proteases [17],87%
Cystatin C,Percentage inhibition (%) Reference,proteases [18],74%
Ub-Aldehyde,Percentage inhibition (%) Reference,proteases [19],91%
same,Percentage inhibition (%) Reference,proteases [20],92%
same,Percentage inhibition (%) Reference,proteases [21],95%
same,Percentage inhibition (%) Reference,proteases [22],73%
same,Percentage inhibition (%) Reference,proteases [23],84%
same,Percentage inhibition (%) Reference,proteases [24],77%
same,Percentage inhibition (%) Reference,proteases [25],96%
same,Percentage inhibition (%) Reference,proteases [26],82%
same,Percentage inhibition (%) Reference,proteases [27],97%
same,Percentage inhibition (%) Reference,proteases [28],95%

# Source: US20220315554A1, “COMPOUNDS COMPRISING A […] LIGAND AND USE THEREOF” (priority 2019, published 2022)
